Assay results from patent US20230346824A1, “MEANS AND METHODS OF PREVENTING AND TREATING INFECTIONS” (SolyPlus GmbH, priority 2020, published 2023).

Test system: S protein monomer
Test: MST binding to RED labelled S protein monomer in 50% negative human serum (FIGS. 4, 7, 8, 10, 12)
Set-up: species or system SARS-CoV-2
Details: 20 nM S protein monomer, ligand 0.5 µM - 0.2 nM arbitrary units, PBS 0.05% Tween 20, 50% negative human serum

Structure (SMILES)	binding to S protein monomer detected by MST
Cn1c(=O)c2c(ncn2C)n(C)c1=O [Coffein, caffeine]	A binding could be detected
O=C[C@H](O)[C@@H](O)[C@@H](O)[C@H](O)CO [D+Galactose, D-Galactose]	A binding could be detected
O=C[C@H](O)[C@@H](O)[C@@H](O)CO [L+Arabinose, L-Arabinose]	No binding could be detected
